The assay relates to nude mice, LOX melanoma ip, survival T/C. Description: NCI In Vivo Anticancer Drug Screen. Data for tumor model Human Amelanotic Melanoma (LOX) (intraperitoneal) in NU/NU BALB/C (nude) mice. The settings on record: endpoint: median survival time, higher = longer survival. The procedure: The antitumor activity of compounds was measured in mice bearing transplantable tumors. Survival or tumor size were measured and the results are expressed as the measurement made in the treated group (T) divided by the measurement made in the vehicle treated control group (C). The tumor model used in this assay is Human Amelanotic Melanoma (LOX) (intraperitoneal) in NU/NU BALB/C (nude) mice

Values joined by “and” are separate entries in the source; they are usually repeats but may differ in a detail not shown here. Identical values can stand only once. Toxic doses and inconclusive results are not listed.

Regarding `CN(Cc1cnc2nc(N)nc(N)c2n1)c1ccc(C(=O)N[C@@H](CCC(=O)O)C(=O)O)cc1`, the T/C reads like this: (dose: 0.38 mg/kg/injection, schedule: Q01DX015 (ip), vehicle: sodium bicarbonate) 90 % of control; (dose: 0.75 mg/kg/injection, schedule: Q01DX005 (ip), vehicle: sodium bicarbonate) 90 % of control; (dose: 1.5 mg/kg/injection, schedule: Q01DX005 (ip), vehicle: sodium bicarbonate) 113 % of control; (dose: 1.5 mg/kg/injection, schedule: Q01DX015 (ip), vehicle: sodium bicarbonate) 95 % of control; (dose: 3.0 mg/kg/injection, schedule: Q01DX005 (ip), vehicle: sodium bicarbonate) 112 % of control; (dose: 3.0 mg/kg/injection, schedule: Q01DX015 (ip), vehicle: sodium bicarbonate) 102 % of control. For the same compound, the T/C reads like this: (dose: 6.0 mg/kg/injection, schedule: Q01DX005 (ip), vehicle: sodium bicarbonate) 112 % of control; (dose: 10.0 mg/kg/injection, schedule: Q04DX003 (ip), vehicle: sodium bicarbonate) 107 % of control; (dose: 12.0 mg/kg/injection, schedule: Q01DX005 (ip), vehicle: sodium bicarbonate) 107 % of control; (dose: 12.0 mg/kg/injection, schedule: Q04DX003 (ip), vehicle: sodium bicarbonate) 105 % of control and 112 % of control; (dose: 18.0 mg/kg/injection, schedule: Q04DX003 (ip), vehicle: sodium bicarbonate) 103 % of control and 101 % of control; (dose: 20.0 mg/kg/injection, schedule: Q04DX003 (ip), vehicle: sodium bicarbonate) 102 % of control. Besides, the T/C reads like this: (dose: 25.0 mg/kg/injection, schedule: Q01DX001 (ip), vehicle: sodium bicarbonate) 107 % of control; (dose: 27.0 mg/kg/injection, schedule: Q04DX003 (ip), vehicle: sodium bicarbonate) 105 % of control and 112 % of control; (dose: 40.0 mg/kg/injection, schedule: Q04DX003 (ip), vehicle: sodium bicarbonate) 113 % of control; (dose: 50.0 mg/kg/injection, schedule: Q01DX001 (ip), vehicle: sodium bicarbonate) 106 % of control; (dose: 100.0 mg/kg/injection, schedule: Q01DX001 (ip), vehicle: sodium bicarbonate) 103 % of control; (dose: 200.0 mg/kg/injection, schedule: Q01DX001 (ip), vehicle: sodium bicarbonate) 121 % of control.
As to `CCCCCCCC(=O)O[C@H]1[C@H]2[C@@H](CC1(C)C)C(=O)[C@]13O[C@H]1C(=O)[C@]1(CO1)[C@]23C`, the T/C is, setting by setting: (dose: 2.5 mg/kg/injection, schedule: Q04DX003 (ip), vehicle: saline with Tween-80) 115 % of control; (dose: 5.0 mg/kg/injection, schedule: Q04DX003 (ip), vehicle: saline with Tween-80) 92 % of control; (dose: 10.0 mg/kg/injection, schedule: Q04DX003 (ip), vehicle: saline with Tween-80) 90 % of control; (dose: 20.0 mg/kg/injection, schedule: Q04DX003 (ip), vehicle: saline with Tween-80) 103 % of control; (dose: 40.0 mg/kg/injection, schedule: Q04DX003 (ip), vehicle: saline with Tween-80) 92 % of control.
As for `COc1cc2c(c(OC)c1OC)-c1ccc(OC)c(=O)cc1[C@@H](NC(C)=O)CC2`, the T/C is 162 % of control (dose: 0.13 mg/kg/injection, schedule: Q04DX003 (ip), vehicle: saline); 150 % of control and 179 % of control and 180 % of control (dose: 0.25 mg/kg/injection, schedule: Q04DX003 (ip), vehicle: saline); 171 % of control and 197 % of control and 220 % of control (dose: 0.5 mg/kg/injection, schedule: Q04DX003 (ip), vehicle: saline); 229 % of control and 232 % of control and 280 % of control (dose: 1.0 mg/kg/injection, schedule: Q04DX003 (ip), vehicle: saline); 189 % of control and 222 % of control and 262 % of control (dose: 2.0 mg/kg/injection, schedule: Q04DX003 (ip), vehicle: saline); 268 % of control (dose: 4.0 mg/kg/injection, schedule: Q04DX003 (ip), vehicle: saline).
Turning to `C/C(=N\NC(=O)c1ccccc1O)c1cccc(/C(C)=N/NC(=O)c2ccccc2O)n1`, the T/C reads like this: (dose: 50.0 mg/kg/injection, schedule: Q04DX003 (ip), vehicle: saline) 116 % of control; (dose: 100.0 mg/kg/injection, schedule: Q04DX003 (ip), vehicle: saline) 154 % of control.
Take `CC1=NN(c2cccc(S(=O)(=O)O)c2)C(=O)C1N=Nc1cc(Cl)cc(S(=O)(=O)O)c1O.CC1=NN(c2cccc(S(=O)(=O)O)c2)C(=O)C1N=Nc1cc(Cl)cc(S(=O)(=O)O)c1O.[Cr]` (stereo unspecified): the T/C is, setting by setting: (dose: 75.0 mg/kg/injection, schedule: Q04DX003 (ip), vehicle: suspension in saline) 97 % of control; (dose: 150.0 mg/kg/injection, schedule: Q04DX003 (ip), vehicle: suspension in saline) 94 % of control; (dose: 300.0 mg/kg/injection, schedule: Q04DX003 (ip), vehicle: suspension in saline) 87 % of control.
With `O=C(O)c1cc(C(=O)O)c(C(=O)O)cc1C(=O)O.[NH2-].[NH2-].[NH2-].[NH2-].[Pt+2].[Pt+2]`, the T/C was 89 % of control (dose: 6.25 mg/kg/injection, schedule: Q04DX003 (ip), vehicle: water); 104 % of control (dose: 12.5 mg/kg/injection, schedule: Q04DX003 (ip), vehicle: water); 115 % of control (dose: 25.0 mg/kg/injection, schedule: Q04DX003 (ip), vehicle: water); 115 % of control (dose: 50.0 mg/kg/injection, schedule: Q04DX003 (ip), vehicle: water).
As to `COC1=CCC23C(=O)C=CC(=O)C2(C1)C(=O)c1ccccc1C3=O` (stereo unspecified), the T/C (dose: 6.25 mg/kg/injection, schedule: Q04DX003 (ip), vehicle: saline with Tween-80) is 101 % of control; the T/C (dose: 12.5 mg/kg/injection, schedule: Q04DX003 (ip), vehicle: saline with Tween-80) is 100 % of control; the T/C (dose: 25.0 mg/kg/injection, schedule: Q04DX003 (ip), vehicle: saline with Tween-80) is 94 % of control.

(Values after PubChem BioAssay AID280 (DTP/NCI, 2004).)
